For 19 compounds, IC50 and Activity results are on record in ChEMBL document CHEMBL5260816, “Synthesis and biological evaluation of the natural product komaroviquinone and related compounds aiming at a potential therapeutic lead compound for high-risk multiple myeloma” (Bioorg Med Chem Lett, 2017).

Data set [1] is described as follows: Cytotoxicity against human MUM24 cells assessed as reduction in cell viability incubated for 48 hrs by MTT assay. The note with it: MUM24, 48 h. It is filed as functional, cell-based. (Formazan colour is commonly taken as a measure of viable cells.)
Data set [2] can be described thus: Toxicity in ICR mouse bone marrow cells assessed as inhibition of cell differentiation incubated for 14 days by colony forming cell assay. The class given is cell-based. The note with it: 336 h, time 14 day.
Data set [3] is described as follows: Toxicity in ICR mouse bone marrow cells assessed as inhibition of cell differentiation at higher concentration incubated for 14 days by colony forming cell assay. It is filed as cell-based. The settings on record: 336 h, time 14 day.
A short description of data set [4]: Toxicity in ICR mouse bone marrow cells assessed as inhibition of cell differentiation at 1 uM incubated for 14 days by colony forming cell assay. It is filed as cell-based. The note with it: 336 h, time 14 day.

One may read the IC50 as the concentration that inhibits the measured activity by half.

As for `COc1cc(C[C@@]23CCCC(C)(C)[C@@H]2CC(=O)O3)c(OC)c(OC)c1C(C)C`, the IC50 in data set [1] is 4.97 µM.

With `COC1=C(C(C)C)C(=O)C=C(C[C@@]23CCCC(C)(C)[C@@H]2CC(=O)O3)C1=O`, the 50% inhibitory concentration (IC50) in data set [1] is less than 3 µM.

For `COC1=C(C(C)C)C(=O)C=C(Cc2ccccc2)C1=O`, the IC50 in data set [1] was less than 3 µM.

`COC1=C(C(C)C)C(=O)C=C(CNC(=O)C2CCCCC2)C1=O`: the IC50 in data set [1] was less than 3 µM.

As for `COC1=C(C(C)C)C(=O)C=C(COC(C)C)C1=O`, in data set [1], the IC50 is less than 3 µM.

As to `COC1=C(C(C)C)C(=O)C=C(COC(Cn2cncn2)c2ccc(F)cc2F)C1=O` (centres undefined), the IC50 in data set [1] came out at 3.31 µM.

For the compound `COC1=C(C(C)C)C(=O)C=C(CC(O)(Cn2cncn2)c2ccc(F)cc2F)C1=O` (centres undefined), the IC50 in data set [1] came to 2.49 µM. In data set [2], the Activity result was “Toxic”.

As for `COc1c2c(c(OC)c(C(C)C)c1OC)C(=O)CCC2`, the IC50 in data set [1] was more than 30 µM.

Consider `COc1c(O)c2c(c(O)c1C(C)C)C(=O)C[C@H]1C(C)(C)CCC[C@]1(O)C2`, for which, in data set [1], the IC50 is 6.13 µM. Besides, the Activity entry in data set [2] is on record as “Toxic”.

For the compound `COc1cc(CC(O)(Cn2cncn2)c2ccc(F)cc2F)c(OC)c(OC)c1C(C)C` (centres undefined), the IC50 in data set [1] came to 9.85 µM. Further, the Activity result in data set [3] was “Non-Toxic”.

As to `COc1c2c(c(OC)c(C(C)C)c1OC)C(=O)CCCC2`, the IC50 in data set [1] was more than 30 µM.

Take `COC1=C(C(C)C)C(=O)c2ccc(-c3ccccc3)nc2C1=O`: in data set [1], the IC50 came to 4.12 µM.

On to `COc1c(OC(C)=O)c2c(c(OC(C)=O)c1C(C)C)C(=O)C[C@H]1C(C)(C)CCC[C@]1(O)C2`, for which the IC50 in data set [1] is 19.4 µM.

As for `COc1c2c(c(OC)c(C(C)C)c1OC)C(=O)C[C@H]1C(C)(C)CCC[C@]1(O)C2`, in data set [1], the IC50 was more than 10 µM.

For the compound `COc1cc(CC2=CCCC(C)(C)[C@@H]2CC(=O)O)c(OC)c(OC)c1C(C)C`, in data set [1], the IC50 was more than 10 µM.

In the case of `COc1c(OC(C)=O)c2c(c(O)c1C(C)C)C(=O)C[C@H]1C(C)(C)CCC[C@]1(O)C2`, the IC50 in data set [1] is 12.5 µM.

Regarding `COC1=C(C(C)C)C(=O)c2cc3c(nc2C1=O)CCCC3`, in data set [1], the IC50 worked out at 1.39 µM.

As for `COc1cc(COC(Cn2cncn2)c2ccc(F)cc2F)c(OC)c(OC)c1C(C)C` (centres undefined), in data set [1], the IC50 worked out at 7 µM. In addition, in data set [3], the Activity entry was “Non-Toxic”.

In the case of `COC1=C(C(C)C)C(=O)C2=C(C[C@@]34CCCC(C)(C)[C@@H]3C[C@]2(O)O4)C1=O` [KOMAROVIQUINONE], the IC50 in data set [1] is 0.65 µM. In addition, the Activity entry in data set [4] is listed as “Toxic”.
